Measurements from BindingDB's records for doi:10.1111/cbdd.12280 (Universiti Kebangsaan Malaysia, Jalan Raja Muda Abdul Aziz, …, 2014).

target: T1, Lipoxygenase (Glycine max, UniProt Q43440); assay: Lipo-oxygenase activity assay; conditions: pH 7; 25 °C
T1 sequence (Q43440 whole entry): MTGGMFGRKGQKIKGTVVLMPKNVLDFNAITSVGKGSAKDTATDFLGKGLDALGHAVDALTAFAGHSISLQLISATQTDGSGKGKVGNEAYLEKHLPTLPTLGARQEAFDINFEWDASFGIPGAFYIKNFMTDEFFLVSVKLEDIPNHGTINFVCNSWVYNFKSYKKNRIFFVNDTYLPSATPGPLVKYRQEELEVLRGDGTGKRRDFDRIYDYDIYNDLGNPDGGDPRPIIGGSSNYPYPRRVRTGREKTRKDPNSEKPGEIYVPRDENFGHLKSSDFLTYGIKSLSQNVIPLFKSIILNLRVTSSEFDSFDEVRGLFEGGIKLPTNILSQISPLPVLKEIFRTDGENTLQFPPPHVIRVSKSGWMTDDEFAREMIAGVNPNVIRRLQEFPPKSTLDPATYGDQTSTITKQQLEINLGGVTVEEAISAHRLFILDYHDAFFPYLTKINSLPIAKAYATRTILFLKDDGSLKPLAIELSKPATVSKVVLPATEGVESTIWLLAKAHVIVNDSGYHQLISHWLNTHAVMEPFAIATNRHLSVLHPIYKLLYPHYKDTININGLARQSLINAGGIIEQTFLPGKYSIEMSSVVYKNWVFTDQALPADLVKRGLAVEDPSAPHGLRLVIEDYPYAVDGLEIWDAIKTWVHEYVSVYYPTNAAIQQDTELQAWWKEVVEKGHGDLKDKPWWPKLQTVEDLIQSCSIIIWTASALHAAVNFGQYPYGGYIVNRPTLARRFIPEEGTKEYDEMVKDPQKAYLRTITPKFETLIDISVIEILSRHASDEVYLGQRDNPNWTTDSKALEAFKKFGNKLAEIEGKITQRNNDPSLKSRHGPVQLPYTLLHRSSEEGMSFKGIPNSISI
Method: The assay was progressed in 96-well microliter plates containing substrate, soybean LOX enzyme, and respective test substance at room temperature in a 0.1 M Tris-HCl buffer solution at pH 7. The reaction was initiated by the addition of substrate solution to all wells and incubated for 5 min, followed by the addition of 100 µL of chromogen solution to all wells to stop enzyme catalysis and incubated for 5 min. The absorbance was measured at 490 nm. Dimethyl sulphoxide served as a negative control.

Structure (SMILES) | IC50
COc1cccc(/C=C/C(=O)/C=C/c2cccc(OC)c2OC)c1OC [(1Z,4Z)–1-5-Bis[2,3(dimethoxy)phenyl]-1,4-pentadien-3-one (9)] | 62.9 µM
COc1cc(C=CC(=O)CC(=O)C=Cc2ccc(O)c(OC)c2)ccc1O [(1E,6E)-1,7-bis(4-hydroxy-3-methoxyphenyl)hepta-1,6-diene-3,5-dione] | 57.8 µM
CCN(CC)c1ccc(/C=C/C(=O)/C=C/c2ccc(N(CC)CC)cc2)cc1 [(1E,4E)‐1,5‐bis[4‐(diethylamino)phenyl]penta‐1,4‐ dien‐3‐one (11)] | 95.1 µM
CC(Cc1ccc(O)c(O)c1)C(C)Cc1ccc(O)c(O)c1 (configuration not stated) [LOX inhibitor, N/A] | 9.23 µM

Further molecules by falling IC50, results first:

IC50 | Structure (SMILES)
63.8 µM | COc1cccc(/C=C2\CC/C(=C\c3cccc(OC)c3OC)C2=O)c1OC [(2E,5E)‐2,5‐bis[(2,3‐ dimethoxyphenyl)methylidene]cyclopentan‐1‐one (15)]
56.8 µM | CCN(CC)c1ccc(/C=C2\CC/C(=C\c3ccc(N(CC)CC)cc3)C2=O)cc1 [2,5-Bis(4-diethylaminobenzylidene)cyclopentanone (17)]
47.8 µM | COc1cccc(/C=C2\CCC/C(=C\c3cccc(OC)c3OC)C2=O)c1OC [2,6-Bis(2,3-dimethoxybenzylidene)cyclohexanone (3)]

target: T2, Prostaglandin E synthase (Homo sapiens, UniProt O14684); assay: Microsomal prostaglandin E synthase-1 activity assay; conditions: pH 7; 20 °C
T2 sequence (O14684 whole entry): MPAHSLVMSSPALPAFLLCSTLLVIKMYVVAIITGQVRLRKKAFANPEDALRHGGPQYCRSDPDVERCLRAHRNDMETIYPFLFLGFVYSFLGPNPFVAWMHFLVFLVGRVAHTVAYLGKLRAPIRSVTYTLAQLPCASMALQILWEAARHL
Method: The assay buffer contained 100 mM KHPO4 (pH 7.0), 2 mM EDTA and 2.5 mM reduced GSH. 100 µL of reaction buffer containing human recombinant mPGES-1 was added to 96-well non-binding plate, followed by the addition of test samples to their respective wells. The reaction mixture was incubated for 30 min at 20 °C. […] The reaction was quenched by adding 20 µL of SnCl2 solution in 1 N HCl.

Structure (SMILES) | IC50
COc1cccc(/C=C/C(=O)/C=C/c2cccc(OC)c2OC)c1OC [(1Z,4Z)–1-5-Bis[2,3(dimethoxy)phenyl]-1,4-pentadien-3-one (9)] | 14.8 µM
COc1cc(C=CC(=O)CC(=O)C=Cc2ccc(O)c(OC)c2)ccc1O [(1E,6E)-1,7-bis(4-hydroxy-3-methoxyphenyl)hepta-1,6-diene-3,5-dione] | 4.88 µM
CCN(CC)c1ccc(/C=C/C(=O)/C=C/c2ccc(N(CC)CC)cc2)cc1 [(1E,4E)‐1,5‐bis[4‐(diethylamino)phenyl]penta‐1,4‐ dien‐3‐one (11)] | 6.98 µM

The next lines start with the values.

IC50 | Structure (SMILES)
10.4 µM | COc1cccc(/C=C2\CC/C(=C\c3cccc(OC)c3OC)C2=O)c1OC [(2E,5E)‐2,5‐bis[(2,3‐ dimethoxyphenyl)methylidene]cyclopentan‐1‐one (15)]
5.48 µM | CCN(CC)c1ccc(/C=C2\CC/C(=C\c3ccc(N(CC)CC)cc3)C2=O)cc1 [2,5-Bis(4-diethylaminobenzylidene)cyclopentanone (17)]
7.34 µM | COc1cccc(/C=C2\CCC/C(=C\c3cccc(OC)c3OC)C2=O)c1OC [2,6-Bis(2,3-dimethoxybenzylidene)cyclohexanone (3)]

target: T3, Prostaglandin G/H synthase 2 (Homo sapiens, UniProt P35354); assay: Cyclooxygenase activity assay; conditions: pH 8; 37 °C
T3 sequence (P35354 whole entry): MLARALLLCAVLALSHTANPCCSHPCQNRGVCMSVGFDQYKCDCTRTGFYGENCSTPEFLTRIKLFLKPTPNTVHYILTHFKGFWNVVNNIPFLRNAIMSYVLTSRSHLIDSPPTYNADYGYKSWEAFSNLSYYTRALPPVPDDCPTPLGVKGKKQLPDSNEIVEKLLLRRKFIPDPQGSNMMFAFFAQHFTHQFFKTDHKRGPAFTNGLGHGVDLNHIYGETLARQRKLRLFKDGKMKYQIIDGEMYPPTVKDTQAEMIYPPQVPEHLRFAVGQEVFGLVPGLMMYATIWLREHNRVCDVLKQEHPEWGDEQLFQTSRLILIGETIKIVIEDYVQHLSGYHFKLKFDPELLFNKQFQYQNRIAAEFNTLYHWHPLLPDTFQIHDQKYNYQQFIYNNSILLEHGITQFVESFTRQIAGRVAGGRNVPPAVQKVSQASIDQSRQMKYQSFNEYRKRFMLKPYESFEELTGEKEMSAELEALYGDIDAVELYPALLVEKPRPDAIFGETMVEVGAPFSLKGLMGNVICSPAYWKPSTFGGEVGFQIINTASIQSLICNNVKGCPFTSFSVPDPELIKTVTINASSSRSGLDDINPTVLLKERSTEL
Method: (§1) Reaction mixture containing 100 mM Tris-HCl buffer (pH 8) and COX-1 (ovine) or COX-2 (human recombinant) was preincubated for 10 min in a water bath at 37 °C. The reaction was initiated by the addition of 10 µL arachidonic acid (final concentration 100 µM). After 2 min, the reaction was terminated by adding 1 M HCl. Test compounds were dissolved in DMSO and diluted to the desired concentration with potassium phosphate buffer of pH 7.4.

IC50 | Structure (SMILES)
53.2 µM | COc1cccc(/C=C2\CCC/C(=C\c3cccc(OC)c3OC)C2=O)c1OC [2,6-Bis(2,3-dimethoxybenzylidene)cyclohexanone (3)]
70.7 µM | COc1cccc(/C=C/C(=O)/C=C/c2cccc(OC)c2OC)c1OC [(1Z,4Z)–1-5-Bis[2,3(dimethoxy)phenyl]-1,4-pentadien-3-one (9)]
94.9 µM | CCN(CC)c1ccc(/C=C/C(=O)/C=C/c2ccc(N(CC)CC)cc2)cc1 [(1E,4E)‐1,5‐bis[4‐(diethylamino)phenyl]penta‐1,4‐ dien‐3‐one (11)]

target: T4, Prostaglandin G/H synthase 1 (Ovis aries, UniProt P05979); assay: Cyclooxygenase activity assay; conditions: pH 8; 37 °C
T4 sequence (P05979 whole entry): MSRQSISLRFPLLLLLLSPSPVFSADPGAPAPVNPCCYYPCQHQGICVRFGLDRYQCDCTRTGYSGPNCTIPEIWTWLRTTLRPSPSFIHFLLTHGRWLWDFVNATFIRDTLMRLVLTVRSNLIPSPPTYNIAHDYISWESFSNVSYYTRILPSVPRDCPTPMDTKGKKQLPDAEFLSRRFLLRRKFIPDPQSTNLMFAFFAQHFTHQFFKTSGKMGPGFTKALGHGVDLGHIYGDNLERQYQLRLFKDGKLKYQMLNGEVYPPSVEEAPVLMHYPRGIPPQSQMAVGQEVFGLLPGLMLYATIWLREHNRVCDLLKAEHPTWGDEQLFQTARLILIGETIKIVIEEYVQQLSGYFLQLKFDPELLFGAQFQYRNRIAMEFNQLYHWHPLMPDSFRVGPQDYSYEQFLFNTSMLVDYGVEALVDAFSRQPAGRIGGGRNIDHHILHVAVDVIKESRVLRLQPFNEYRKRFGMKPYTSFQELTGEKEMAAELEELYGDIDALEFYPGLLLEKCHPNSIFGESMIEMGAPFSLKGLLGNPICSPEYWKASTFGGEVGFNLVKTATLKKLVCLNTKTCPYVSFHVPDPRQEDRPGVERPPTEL
Method: as §1

Structure (SMILES) | IC50
COc1cccc(/C=C/C(=O)/C=C/c2cccc(OC)c2OC)c1OC [(1Z,4Z)–1-5-Bis[2,3(dimethoxy)phenyl]-1,4-pentadien-3-one (9)] | 41.5 µM
COc1cc(C=CC(=O)CC(=O)C=Cc2ccc(O)c(OC)c2)ccc1O [(1E,6E)-1,7-bis(4-hydroxy-3-methoxyphenyl)hepta-1,6-diene-3,5-dione] | 31.3 µM
CCN(CC)c1ccc(/C=C/C(=O)/C=C/c2ccc(N(CC)CC)cc2)cc1 [(1E,4E)‐1,5‐bis[4‐(diethylamino)phenyl]penta‐1,4‐ dien‐3‐one (11)] | 37.7 µM

More lines, now with the values ahead:

IC50 | Structure (SMILES)
40.2 µM | COc1cccc(/C=C2\CC/C(=C\c3cccc(OC)c3OC)C2=O)c1OC [(2E,5E)‐2,5‐bis[(2,3‐ dimethoxyphenyl)methylidene]cyclopentan‐1‐one (15)]
32 µM | CCN(CC)c1ccc(/C=C2\CC/C(=C\c3ccc(N(CC)CC)cc3)C2=O)cc1 [2,5-Bis(4-diethylaminobenzylidene)cyclopentanone (17)]
33.3 µM | COc1cccc(/C=C2\CCC/C(=C\c3cccc(OC)c3OC)C2=O)c1OC [2,6-Bis(2,3-dimethoxybenzylidene)cyclohexanone (3)]

target: T5, Phospholipase A2 group V (Homo sapiens, UniProt P39877); assay: sPLA2-V activity assay; conditions: pH 8; 25 °C
T5 sequence (P39877 whole entry): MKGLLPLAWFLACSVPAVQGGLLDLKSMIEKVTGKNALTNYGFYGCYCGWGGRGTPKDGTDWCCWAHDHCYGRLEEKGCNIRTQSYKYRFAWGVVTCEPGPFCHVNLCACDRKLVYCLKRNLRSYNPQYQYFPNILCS
Method: Substrate 1,2-bis(heptanoylthio)-glycerophosphocholine and human recombinant PLA2-V were resuspended in assay buffer, and DTNB was dissolved in an aqueous solution of Tris-HCl (pH 8).

Structure (SMILES) | IC50
COc1cccc(/C=C/C(=O)/C=C/c2cccc(OC)c2OC)c1OC [(1Z,4Z)–1-5-Bis[2,3(dimethoxy)phenyl]-1,4-pentadien-3-one (9)] | 10.4 µM
CCN(CC)c1ccc(/C=C/C(=O)/C=C/c2ccc(N(CC)CC)cc2)cc1 [(1E,4E)‐1,5‐bis[4‐(diethylamino)phenyl]penta‐1,4‐ dien‐3‐one (11)] | 16.1 µM

The next lines start with the values.

IC50 | Structure (SMILES)
16.4 µM | COc1cccc(/C=C2\CC/C(=C\c3cccc(OC)c3OC)C2=O)c1OC [(2E,5E)‐2,5‐bis[(2,3‐ dimethoxyphenyl)methylidene]cyclopentan‐1‐one (15)]
10.2 µM | CCN(CC)c1ccc(/C=C2\CC/C(=C\c3ccc(N(CC)CC)cc3)C2=O)cc1 [2,5-Bis(4-diethylaminobenzylidene)cyclopentanone (17)]
11 µM | COc1cccc(/C=C2\CCC/C(=C\c3cccc(OC)c3OC)C2=O)c1OC [2,6-Bis(2,3-dimethoxybenzylidene)cyclohexanone (3)]
